Results taken from ChEMBL document CHEMBL1201862, “PubChem BioAssay data set” (2004).
Activity calls are given as the source filed them.

Columns and labels:
[1] = biological target: Neurotensin receptor type 1 (Homo sapiens, UniProt P30989); format: functional;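 also: Image-based confirmatory dose-response assay measuring agonist activity at NTR1; NTR1-expressing U2OS osteosarcoma cells imaged for beta-arrestin GFP spot formation; agonist potency where compounds increase beta-arrestin recruitment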
Neurotensin receptor type 1, sequence (P30989 whole entry): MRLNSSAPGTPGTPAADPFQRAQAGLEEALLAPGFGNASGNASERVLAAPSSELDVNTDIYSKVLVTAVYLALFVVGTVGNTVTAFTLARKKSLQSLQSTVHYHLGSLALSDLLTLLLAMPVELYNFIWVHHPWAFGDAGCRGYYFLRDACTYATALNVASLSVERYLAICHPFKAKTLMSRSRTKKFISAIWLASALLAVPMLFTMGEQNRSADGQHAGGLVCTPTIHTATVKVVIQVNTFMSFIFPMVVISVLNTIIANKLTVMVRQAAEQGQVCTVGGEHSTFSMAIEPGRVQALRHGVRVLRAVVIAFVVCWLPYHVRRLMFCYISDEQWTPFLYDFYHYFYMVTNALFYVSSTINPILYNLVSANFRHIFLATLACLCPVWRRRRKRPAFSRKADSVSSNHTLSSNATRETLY

[2] = tested on: Streptococcus; experiment: GAS UMAA2166 growth inhibition – luminescence, BacTiterGlo, counter-screen for streptokinase expression inhibitor project, dose response (AID 1915); format: functional, organism-based; conditions: read-out: EC50;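 also: potency for reduction of bacterial viability or growth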
[3] = viability loss in THP-1 monocytes – THP-1 cells, cytotoxicity control for Vif-APOBEC3G degradation inhibitor project, dose response (AID 1117359); format: functional; conditions: THP-1
[4] = biological target: T1, Microphthalmia-associated transcription factor (Homo sapiens, UniProt O75030); experiment: reducers of TRPM1 reporter luminescence, concentration series – cell-based, SK-MEL-5, cherry-picked, set 3, MITF inhibitor project, dose response (AID 493073); format: functional;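 also: SK-MEL-5 melanoma cells with luciferase driven by the MITF target TRPM1 promoter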
T1 sequence (O75030 whole entry): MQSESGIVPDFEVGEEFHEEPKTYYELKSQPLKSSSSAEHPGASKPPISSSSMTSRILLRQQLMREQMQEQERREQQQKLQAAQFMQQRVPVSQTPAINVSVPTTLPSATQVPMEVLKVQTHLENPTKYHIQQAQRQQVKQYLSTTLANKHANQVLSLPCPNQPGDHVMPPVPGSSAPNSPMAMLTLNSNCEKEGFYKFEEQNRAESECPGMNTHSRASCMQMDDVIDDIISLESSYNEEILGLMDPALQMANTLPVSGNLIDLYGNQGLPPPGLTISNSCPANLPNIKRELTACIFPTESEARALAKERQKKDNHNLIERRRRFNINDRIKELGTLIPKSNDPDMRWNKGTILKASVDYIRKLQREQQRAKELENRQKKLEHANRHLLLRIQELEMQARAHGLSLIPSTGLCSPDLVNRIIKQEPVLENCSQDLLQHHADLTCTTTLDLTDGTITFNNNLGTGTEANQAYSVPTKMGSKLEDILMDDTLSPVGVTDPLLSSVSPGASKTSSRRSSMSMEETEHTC

[5] = biological target: T2, Streptokinase A (Streptococcus pyogenes serotype M1, UniProt P10520); experiment: viability-normalized secreted streptokinase activity reduction – plasminogen activation absorbance, OD405, dose response (AID 1914); format: functional, Streptococcus pyogenes M1 GAS;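 also: secreted streptokinase activity via plasminogen activation per viability signal from cell pellet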
T2 sequence (P10520 whole entry): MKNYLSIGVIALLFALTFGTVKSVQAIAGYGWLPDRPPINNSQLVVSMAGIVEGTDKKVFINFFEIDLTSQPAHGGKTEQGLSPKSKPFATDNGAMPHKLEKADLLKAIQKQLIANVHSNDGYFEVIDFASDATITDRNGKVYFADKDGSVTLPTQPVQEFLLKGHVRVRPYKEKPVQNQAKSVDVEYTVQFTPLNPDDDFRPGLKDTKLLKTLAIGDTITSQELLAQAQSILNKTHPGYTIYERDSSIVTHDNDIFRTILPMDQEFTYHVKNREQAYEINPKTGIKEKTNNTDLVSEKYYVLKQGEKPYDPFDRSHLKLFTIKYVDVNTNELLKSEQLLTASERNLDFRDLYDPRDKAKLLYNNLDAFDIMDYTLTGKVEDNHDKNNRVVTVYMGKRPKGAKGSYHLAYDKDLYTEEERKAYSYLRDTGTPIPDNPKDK

[6] = tested on: Streptococcus sp. 'group A'; experiment: Streptococcus pyogenes SK(-)GAS viability under kanamycin – luminescence, BacTiterGlo, confirmation, counter-screen for streptokinase expression inhibitor project, dose response (AID 1900); format: functional, organism-based
[7] = biological target: T3, Eukaryotic translation initiation factor 2-alpha kinase 3 (Homo sapiens, UniProt Q9NZJ5); experiment: Counterscreen assay for PERK inhibitors: Dose response cell-based high throughput screening assay to measure inhibition of PERK at 6 hours. [Related pubchem assays: 1522, 1416 ]; format: functional
T3 sequence (Q9NZJ5 whole entry): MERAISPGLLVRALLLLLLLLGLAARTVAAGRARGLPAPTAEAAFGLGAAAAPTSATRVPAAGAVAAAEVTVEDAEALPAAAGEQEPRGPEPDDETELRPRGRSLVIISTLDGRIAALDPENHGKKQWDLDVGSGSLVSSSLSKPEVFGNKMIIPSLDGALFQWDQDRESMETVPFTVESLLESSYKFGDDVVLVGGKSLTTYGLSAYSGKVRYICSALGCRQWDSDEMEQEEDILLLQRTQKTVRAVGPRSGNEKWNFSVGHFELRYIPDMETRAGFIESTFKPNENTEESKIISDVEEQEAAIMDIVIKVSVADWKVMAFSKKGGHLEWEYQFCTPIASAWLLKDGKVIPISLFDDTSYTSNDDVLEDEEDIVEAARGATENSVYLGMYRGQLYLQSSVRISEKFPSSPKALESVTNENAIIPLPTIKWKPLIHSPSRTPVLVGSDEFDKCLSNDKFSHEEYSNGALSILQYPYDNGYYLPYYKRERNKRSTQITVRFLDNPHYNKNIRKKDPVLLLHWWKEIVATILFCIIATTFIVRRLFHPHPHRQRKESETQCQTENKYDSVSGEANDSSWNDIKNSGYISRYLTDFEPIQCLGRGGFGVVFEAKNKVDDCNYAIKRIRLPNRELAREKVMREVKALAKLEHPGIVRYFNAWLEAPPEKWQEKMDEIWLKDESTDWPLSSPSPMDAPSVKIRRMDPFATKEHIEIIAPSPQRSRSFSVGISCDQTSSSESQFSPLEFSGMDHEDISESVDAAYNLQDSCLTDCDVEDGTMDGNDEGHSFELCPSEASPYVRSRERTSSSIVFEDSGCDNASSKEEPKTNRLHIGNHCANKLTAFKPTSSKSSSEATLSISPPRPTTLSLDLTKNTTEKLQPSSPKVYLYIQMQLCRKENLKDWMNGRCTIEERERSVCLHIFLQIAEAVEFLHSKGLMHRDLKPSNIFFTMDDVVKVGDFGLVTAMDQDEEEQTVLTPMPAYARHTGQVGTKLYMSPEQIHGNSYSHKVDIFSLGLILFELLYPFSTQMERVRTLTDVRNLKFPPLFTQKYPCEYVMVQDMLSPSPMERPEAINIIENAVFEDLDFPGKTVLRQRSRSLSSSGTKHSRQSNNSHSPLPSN

[8] = biological target: T3, Eukaryotic translation initiation factor 2-alpha kinase 3; experiment: Dose response cell-based high-throughput screening assay to measure PERK inhibition. [Related pubchem assays: 1416 ]; format: functional
[9] = Luminescence Cell-Based Dose Confirmation HTS to Identify Inhibitors of Platelet Dense Granule Release. [Related pubchem assays: 1663 (Primary HTS), 1678 (Summary of Project)]; format: functional
[10] = biological target: Luciferin 4-monooxygenase (Photinus pyralis, UniProt P08659); experiment: inhibition of purified Photinus pyralis luciferase – biochemical, luminescence, dose response (AID 1891)
Luciferin 4-monooxygenase, sequence (P08659 whole entry): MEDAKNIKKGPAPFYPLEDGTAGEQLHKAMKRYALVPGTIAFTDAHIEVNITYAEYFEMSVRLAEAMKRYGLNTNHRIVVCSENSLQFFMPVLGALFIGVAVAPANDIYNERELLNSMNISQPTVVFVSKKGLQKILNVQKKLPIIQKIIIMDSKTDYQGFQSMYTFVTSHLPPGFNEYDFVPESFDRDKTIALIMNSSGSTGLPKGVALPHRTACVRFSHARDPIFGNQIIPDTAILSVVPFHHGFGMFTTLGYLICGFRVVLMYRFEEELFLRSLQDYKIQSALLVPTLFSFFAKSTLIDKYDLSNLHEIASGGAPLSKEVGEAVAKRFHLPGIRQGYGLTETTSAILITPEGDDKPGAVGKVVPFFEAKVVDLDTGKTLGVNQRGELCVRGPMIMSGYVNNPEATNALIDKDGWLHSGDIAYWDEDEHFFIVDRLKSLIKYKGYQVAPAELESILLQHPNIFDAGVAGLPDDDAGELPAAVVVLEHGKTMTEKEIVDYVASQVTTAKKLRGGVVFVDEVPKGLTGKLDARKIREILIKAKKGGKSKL

[11] = biological target: T4, Hexokinase HKDC1 (Homo sapiens, UniProt Q2TB90); experiment: inhibition of HKDC1 glucose phosphorylation – biochemical, W721R variant, dose response (AID 504729); format: functional
T4 sequence (Q2TB90 whole entry): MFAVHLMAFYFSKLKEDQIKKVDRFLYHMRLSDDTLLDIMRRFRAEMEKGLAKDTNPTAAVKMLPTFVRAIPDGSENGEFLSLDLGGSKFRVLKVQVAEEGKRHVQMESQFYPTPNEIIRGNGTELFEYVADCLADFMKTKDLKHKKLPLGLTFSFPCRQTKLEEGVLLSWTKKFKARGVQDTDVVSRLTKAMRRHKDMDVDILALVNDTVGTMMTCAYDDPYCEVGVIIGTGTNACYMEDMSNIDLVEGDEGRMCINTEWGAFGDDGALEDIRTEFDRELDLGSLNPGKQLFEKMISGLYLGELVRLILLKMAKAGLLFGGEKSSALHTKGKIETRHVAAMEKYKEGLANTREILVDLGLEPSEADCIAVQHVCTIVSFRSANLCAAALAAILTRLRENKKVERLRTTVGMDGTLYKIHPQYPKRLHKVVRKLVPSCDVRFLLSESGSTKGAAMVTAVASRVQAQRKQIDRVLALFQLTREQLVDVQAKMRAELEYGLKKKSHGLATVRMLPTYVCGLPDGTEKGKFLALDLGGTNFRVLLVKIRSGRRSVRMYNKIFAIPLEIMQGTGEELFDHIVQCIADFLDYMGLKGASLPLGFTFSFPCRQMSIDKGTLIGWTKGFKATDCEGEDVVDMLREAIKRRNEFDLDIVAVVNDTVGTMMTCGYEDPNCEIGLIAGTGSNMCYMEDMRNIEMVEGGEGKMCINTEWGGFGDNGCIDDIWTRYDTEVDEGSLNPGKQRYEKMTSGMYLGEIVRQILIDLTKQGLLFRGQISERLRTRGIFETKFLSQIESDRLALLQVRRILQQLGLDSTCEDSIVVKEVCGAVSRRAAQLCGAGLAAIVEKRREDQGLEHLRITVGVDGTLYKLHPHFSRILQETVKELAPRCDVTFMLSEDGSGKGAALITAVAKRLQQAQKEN

[12] = cells; format: functional
[13] = THP-1 cell cytotoxicity, dose response, cytotoxicity control for non-replicating M. tuberculosis project (AID 489025); format: functional
[14] = HepG2 cell cytotoxicity, dose response, cytotoxicity control for non-replicating M. tuberculosis project (AID 489018); format: functional; conditions: Mycobacterium tuberculosis
[15] = Vero E6 cell cytotoxicity, dose response, cytotoxicity control for non-replicating M. tuberculosis project, secondary assay (AID 492998); format: functional, VeroE6; conditions: Vero C1008
[16] = biological target: Bcl-2-like protein 10 (Homo sapiens, UniProt Q9HD36); experiment: Bcl-B/TR3 peptide binding disruption – biochemical, fluorescence polarization, FITC-TR3 peptide, selectivity assay for Bfl-1 inhibitor project, primary screen (AID 748);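 also: fluorescence polarization from a fluorescein-labelled TR3 peptide binding purified Bcl-B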
Bcl-2-like protein 10, sequence (Q9HD36 whole entry): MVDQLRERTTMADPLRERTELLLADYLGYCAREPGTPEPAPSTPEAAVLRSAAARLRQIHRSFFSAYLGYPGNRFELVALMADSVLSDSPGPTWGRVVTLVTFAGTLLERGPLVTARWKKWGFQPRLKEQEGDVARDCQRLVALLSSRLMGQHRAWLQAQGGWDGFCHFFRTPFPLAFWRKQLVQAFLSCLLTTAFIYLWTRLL

[17] = biological target: C-C chemokine receptor type 6 (Homo sapiens, UniProt P51684); experiment: antagonism of CCR6 beta-arrestin recruitment – cell-based, luminescent beta-arrestin readout, dose response (AID 504728); format: functional
C-C chemokine receptor type 6, sequence (P51684 whole entry): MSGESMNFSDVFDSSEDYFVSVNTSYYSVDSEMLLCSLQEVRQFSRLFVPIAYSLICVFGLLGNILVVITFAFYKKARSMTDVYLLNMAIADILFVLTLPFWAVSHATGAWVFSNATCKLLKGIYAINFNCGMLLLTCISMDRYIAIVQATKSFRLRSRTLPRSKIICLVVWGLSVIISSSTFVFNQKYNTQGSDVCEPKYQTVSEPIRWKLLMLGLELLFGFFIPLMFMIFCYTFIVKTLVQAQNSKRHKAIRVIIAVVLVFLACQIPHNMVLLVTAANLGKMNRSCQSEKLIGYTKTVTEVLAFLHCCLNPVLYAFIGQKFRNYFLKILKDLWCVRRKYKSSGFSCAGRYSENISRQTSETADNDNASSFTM

[18] = biological target: Nonstructural protein 1 (Influenza A virus, UniProt Q194T2); format: functional, Influenza A virus (A/California/07/2009(H1N1))
Nonstructural protein 1, sequence (Q194T2 whole entry): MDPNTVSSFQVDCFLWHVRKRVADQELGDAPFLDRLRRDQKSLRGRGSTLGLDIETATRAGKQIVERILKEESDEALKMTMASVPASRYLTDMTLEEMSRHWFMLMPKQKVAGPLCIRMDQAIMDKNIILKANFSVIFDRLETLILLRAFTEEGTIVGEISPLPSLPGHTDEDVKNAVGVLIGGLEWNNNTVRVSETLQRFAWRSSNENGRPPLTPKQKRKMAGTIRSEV

[19] = biological target: Beta-galactosidase (Escherichia coli, UniProt Q8VNN2); experiment: detection-enzyme interference by beta-gal modulators – biochemical, E. coli enzyme, set 3, artefact control for CCR6 antagonist project, dose response (AID 504712); format: functional
Beta-galactosidase, sequence (Q8VNN2 whole entry): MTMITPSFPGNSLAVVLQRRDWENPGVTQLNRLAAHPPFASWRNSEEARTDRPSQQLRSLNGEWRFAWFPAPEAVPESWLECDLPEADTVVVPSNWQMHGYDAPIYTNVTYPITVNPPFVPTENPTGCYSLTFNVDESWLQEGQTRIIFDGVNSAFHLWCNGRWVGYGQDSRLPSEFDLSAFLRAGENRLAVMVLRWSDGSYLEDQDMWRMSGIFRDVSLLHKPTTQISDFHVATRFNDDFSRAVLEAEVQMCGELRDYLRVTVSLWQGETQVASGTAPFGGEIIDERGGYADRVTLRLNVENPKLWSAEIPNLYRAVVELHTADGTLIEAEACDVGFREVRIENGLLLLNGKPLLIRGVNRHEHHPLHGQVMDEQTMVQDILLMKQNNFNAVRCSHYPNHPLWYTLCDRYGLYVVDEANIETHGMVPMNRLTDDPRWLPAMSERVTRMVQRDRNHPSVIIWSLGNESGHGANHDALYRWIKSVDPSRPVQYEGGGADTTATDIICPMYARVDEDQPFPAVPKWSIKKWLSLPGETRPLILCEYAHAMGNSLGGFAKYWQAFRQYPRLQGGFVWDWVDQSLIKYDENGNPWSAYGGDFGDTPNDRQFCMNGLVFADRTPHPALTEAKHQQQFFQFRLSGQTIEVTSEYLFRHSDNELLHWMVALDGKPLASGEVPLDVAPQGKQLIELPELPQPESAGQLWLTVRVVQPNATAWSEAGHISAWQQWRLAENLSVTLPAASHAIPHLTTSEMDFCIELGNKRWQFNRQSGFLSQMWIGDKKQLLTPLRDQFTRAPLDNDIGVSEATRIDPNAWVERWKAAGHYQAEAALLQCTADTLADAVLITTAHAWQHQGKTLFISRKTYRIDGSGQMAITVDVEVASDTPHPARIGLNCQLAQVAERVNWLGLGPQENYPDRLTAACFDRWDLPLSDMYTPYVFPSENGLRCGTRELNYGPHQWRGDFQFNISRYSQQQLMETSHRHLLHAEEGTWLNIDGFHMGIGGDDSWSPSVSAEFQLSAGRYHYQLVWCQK

[20] = tested on: Vero; experiment: viability of Vero cells under compound – cytotoxicity control for flavivirus capping enzyme inhibitors (AID 588742); format: functional; conditions: Chlorocebus sabaeus
[21] = biological target: Genome polyprotein (dengue virus type 2, UniProt P29990); experiment: flavivirus cap methylation enzyme inhibition – biochemical, confirmation dose response, primary screen (AID 588689); format: functional
Genome polyprotein, sequence (P29990 2492-3391 limits assumed): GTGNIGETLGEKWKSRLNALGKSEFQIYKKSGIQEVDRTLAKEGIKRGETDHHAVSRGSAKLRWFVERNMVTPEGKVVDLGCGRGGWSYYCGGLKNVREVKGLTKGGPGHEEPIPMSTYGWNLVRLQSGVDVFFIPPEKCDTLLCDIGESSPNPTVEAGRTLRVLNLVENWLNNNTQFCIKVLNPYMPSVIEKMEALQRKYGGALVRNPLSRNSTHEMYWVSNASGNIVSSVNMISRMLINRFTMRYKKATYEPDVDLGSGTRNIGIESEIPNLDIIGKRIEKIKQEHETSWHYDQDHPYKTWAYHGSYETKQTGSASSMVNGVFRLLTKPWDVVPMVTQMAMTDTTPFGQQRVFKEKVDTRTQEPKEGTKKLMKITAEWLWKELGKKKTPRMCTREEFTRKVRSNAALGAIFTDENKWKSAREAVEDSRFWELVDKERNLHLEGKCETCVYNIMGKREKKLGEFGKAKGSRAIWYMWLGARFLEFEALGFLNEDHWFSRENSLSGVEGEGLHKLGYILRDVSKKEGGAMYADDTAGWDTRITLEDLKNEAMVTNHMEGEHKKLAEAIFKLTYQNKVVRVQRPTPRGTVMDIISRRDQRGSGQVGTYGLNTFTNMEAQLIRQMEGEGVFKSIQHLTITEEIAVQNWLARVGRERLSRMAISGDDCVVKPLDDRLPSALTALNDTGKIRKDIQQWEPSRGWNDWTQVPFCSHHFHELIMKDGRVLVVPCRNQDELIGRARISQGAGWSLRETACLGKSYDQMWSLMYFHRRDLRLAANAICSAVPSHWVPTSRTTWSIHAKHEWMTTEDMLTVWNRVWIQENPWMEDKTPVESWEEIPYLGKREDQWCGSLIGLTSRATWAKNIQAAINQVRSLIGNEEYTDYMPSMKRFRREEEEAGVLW

[22] = biological target: Melanin-concentrating hormone receptor 1 (Homo sapiens, UniProt Q99705); experiment: Late-stage fluorescence-based counterscreen for antagonists of the G-protein coupled receptor 7 (GPR7): cell-based dose response assay to identify antagonists of the melanin-concentrating hormone receptor 1 (MCHR1). [Related pubchem assays (depositor defined):AID1861, AID1880, AID1952, AID2148, AID2251, AID2257, AID485339]; format: functional;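 also: stimulated with 30 nM MCH peptide agonist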
Melanin-concentrating hormone receptor 1, sequence (Q99705 whole entry): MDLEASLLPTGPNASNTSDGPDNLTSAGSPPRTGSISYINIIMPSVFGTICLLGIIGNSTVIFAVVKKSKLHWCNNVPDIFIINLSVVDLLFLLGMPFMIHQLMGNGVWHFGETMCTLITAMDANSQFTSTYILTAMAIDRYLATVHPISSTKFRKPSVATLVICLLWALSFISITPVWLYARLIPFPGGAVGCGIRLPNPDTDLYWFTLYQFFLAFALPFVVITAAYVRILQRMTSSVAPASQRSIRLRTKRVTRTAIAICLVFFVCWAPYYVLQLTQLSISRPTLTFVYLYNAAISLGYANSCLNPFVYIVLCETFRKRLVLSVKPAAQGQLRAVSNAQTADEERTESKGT

[23] = tested on: Vero; experiment: cells; format: functional; conditions: Chlorocebus sabaeus
[24] = biological target: Heat shock protein HSP 90-alpha (Homo sapiens, UniProt P07900); format: functional, organism-based

In the case of `CC(=O)n1cc(C(C[N+](=O)[O-])SCCN)c2ccccc21` (stereo unspecified), the EC50 [1] is reported as 14.2 µM (active).
In the case of `CN1C(=O)/C(=C/c2cccn2-c2ccc3ccccc3c2)C(=O)NC1=S`, the EC50 [2] is reported as > 50 µM (not active), the CC50 [3] is reported as 14.5 µM (active) and the AC50 [4] is reported as 9.42 µM (active). For the same compound, the EC50 [5] was 4.97 µM (active), the EC50 [1] was 12.1 µM (active) and the EC50 [6] was 5.56 µM (active).
For `Cc1csc2nc(CNC(=O)CCC(=O)O)cn12`, the EC50 [7] was > 55.7 µM (not active) and the EC50 [8] was > 55.7 µM (not active).
With `CC(C)c1nc2oc3c(NCC4CCCO4)ncnc3c2c2c1COC(C)(C)C2` (stereo unspecified) the EC50 [9] was > 112 µM (not active), the EC50 [10] was > 112 µM (not active) and the IC50 [11] was 3.81 µM (active).
In the case of `O=c1c2cc(Cl)ccc2nc(-c2ccc(Cl)c(Cl)c2)n1O`, the IC50 [12] is reported as 4.14 µM (active), the EC50 [2] is reported as 0.949 µM (active) and the CC50 [13] is reported as 14.2 µM (active). The CC50 [14] was > 20 µM (active), the CC50 [15] was 10.9 µM (active) and the EC50 [6] was 0.402 µM (active).
For `CCCCc1c(C)nc2c(OC)cccc2c1SCC(=O)O`, the EC50 [7] was > 55.7 µM (not active) and the EC50 [8] was > 55.7 µM (not active).
In the case of `COc1ccc(N2C(=O)c3cccc4cccc(c34)C2=O)nn1`, the IC50 [16] is reported as > 50 µM (inactive).
In the case of `Nc1c(S(=O)(=O)O)cc(NC(=O)c2ccccc2)c2c1C(=O)c1ccccc1C2=O`, the IC50 [17] is reported as 26.9 µM (inactive), the IC50 [18] is reported as 13.3 µM (active) and the IC50 [19] is reported as > 66.6 µM (inactive). The CC50 [20] was > 40 µM (active) and the IC50 [21] was 34.3 µM (active).
With `COc1ccc(Oc2c(C=O)cnn(-c3ccc(C(C)C)cc3)c2=O)cc1` the IC50 [22] was 4.8 µM (active).
For `COc1cccc(/C=C2/CCC(CN(C)C)C2=O)c1` (stereo unspecified), the IC50 [17] was 32.3 µM (inactive), the IC50 [19] was > 66.6 µM (inactive) and the CC50 [23] was 22.4 µM (active). The AC50 [24] was 4.55 µM (active).
